Results reported in the supplement of paper PMC11061612.

Assays:
Assay in all cases: Bliss excess, mean over the matrix (fraction); higher = more synergy
[1] = system: B-CPAP (Thyroid Gland Carcinoma)
Procedure, shortened: (§1)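 After 24 hours at 37°C and 5% CO2 in 1536-well plates, cells in DMEM/F12 or RPMI plus 10% FBS received two-drug dose matrices for 72 hours. Viability came from CellTiter-Glo 2.0 luminescence and was scaled as inhibition, anchored at 0 by vehicle wells and at 1 by blank wells. Combination Emax is taken as the second-highest inhibition in the matrix, and Bliss excess as the observed combination effect less EA + EB − EA·EB, with EA and EB the single-agent effects.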

[2] = system: CAL-148 (Breast Carcinoma)
Procedure, shortened: as §1

[3] = system: CaR-1 (Colorectal Carcinoma)
Procedure, shortened: as §1

[4] = system: Calu-3 (Lung Adenocarcinoma)
Procedure, shortened: as §1

[5] = system: Daoy (Other Solid Carcinomas)
Procedure, shortened: as §1

[6] = system: HCC1806 (Breast Carcinoma)
Procedure, shortened: as §1

[7] = system: HT-1376 (Bladder Carcinoma)
Procedure, shortened: as §1

[8] = system: Hs-578-T (Breast Carcinoma)
Procedure, shortened: as §1

[9] = system: HuP-T4 (Pancreatic Carcinoma)
Procedure, shortened: as §1

KELLY (Neuroblastoma) = system: KELLY (Neuroblastoma)
Procedure, shortened: as §1

[10] = system: KP-1N (Pancreatic Carcinoma)
Procedure, shortened: as §1

[11] = system: KURAMOCHI (Ovarian Carcinoma)
Procedure, shortened: as §1

[12] = system: KYSE-520 (Esophageal Squamous Cell Carcinoma)
Procedure, shortened: as §1

[13] = system: LB831-BLC (Bladder Carcinoma)
Procedure, shortened: as §1

[14] = system: LNCaP-Clone-FGC (Prostate Carcinoma)
Procedure, shortened: as §1

[15] = system: LS-180 (Colorectal Carcinoma)
Procedure, shortened: as §1

[16] = system: MDA-MB-361 (Breast Carcinoma)
Procedure, shortened: as §1

[17] = system: MFE-296 (Endometrial Carcinoma)
Procedure, shortened: as §1

NB10 (Neuroblastoma) = system: NB10 (Neuroblastoma)
Procedure, shortened: as §1

[18] = system: OVCA420 (Ovarian Carcinoma)
Procedure, shortened: as §1

| Compound | Bliss excess [1] | Bliss excess [2] | Bliss excess [3] | Bliss excess [4] | Bliss excess [5] | Bliss excess [6] | Bliss excess [7] | Bliss excess [8] | Bliss excess [9] | Bliss excess (KELLY (Neuroblastoma)) | Bliss excess [10] | Bliss excess [11] | Bliss excess [12] | Bliss excess [13] | Bliss excess [14] | Bliss excess [15] | Bliss excess [16] | Bliss excess [17] | Bliss excess (NB10 (Neuroblastoma)) | Bliss excess [18] |
| --- | --- | --- | --- | --- | --- | --- | --- | --- | --- | --- | --- | --- | --- | --- | --- | --- | --- | --- | --- | --- |
| COc1cccc(OCCCN)c1-c1cc(Nc2cnc(C#N)cn2)n[nH]1 [Prexasertib] + Cc1cc2ncnn2cc1Nc1ncc2c(n1)n(C1CCOCC1)c(=O)n2C [AZD7648] (first compound max 1 µM, 7x7, partner max 10 µM) | 0.0049 | 0.0235 | 0.0141 | 0.0049 | -0.009 | -0.0193 | -0.0373 | -0.0453 | 0.0127 | -0.0027 | -0.0207 | -0.0628 | -0.0177 | -0.0865 | -0.0617 | -0.0329 | -0.0196 | -0.0093 | -0.0407 | -0.0002 |
| NC1(C(=O)N[C@@H](CCO)c2ccc(Cl)cc2)CCN(c2ncnc3[nH]ccc23)CC1 [Capivasertib] + COc1nnc2ccc(N3CCC(c4ccc(OCCN5CCN(C)C(=O)[C@H]5C)cc4)CC3)nn12 [AZD5153] (first compound max 10 µM, 7x7, partner max 1 µM) | 0.062 | 0.0504 | 0.0378 | 0.0283 | 0.0494 | -0.003 | -0.0317 | 0.06 | -0.0315 | 0.0184 | 0.0274 | -0.0158 | -0.0509 | 0.0335 | -0.0071 | -0.0055 | 0.0588 | 0.0901 | 0.0121 | -0.0496 |
| CN(CCO)CC[C@H](CSc1ccccc1)Nc1ccc(S(=O)(=O)NC(=O)c2ccc(N3CCC([C@@H](O)c4ccccc4-c4ccc(Cl)cc4)CC3)cc2)cc1S(=O)(=O)C(F)(F)F [AZD4320] + Cc1cc2ncnn2cc1Nc1ncc2c(n1)n(C1CCOCC1)c(=O)n2C [AZD7648] (first compound max 1 µM, 7x7, partner max 10 µM) | -0.0275 | -0.0011 | -0.04 | -0.0547 | -0.042 | -0.058 | -0.17 | 0.0165 | -0.0439 | 0.0306 | -0.0588 | -0.0239 | -0.0365 | 0.0041 | -0.0622 | -0.0458 | 0.0056 | -0.0185 | -0.0281 | -0.0436 |
| COc1cccc2c1C(=O)c1c(O)c3c(c(O)c1C2=O)C[C@@](O)(C(=O)CO)C[C@@H]3O[C@H]1C[C@H](N)[C@H](O)[C@H](C)O1 [Doxorubicin] + Cc1cc2ncnn2cc1Nc1ncc2c(n1)n(C1CCOCC1)c(=O)n2C [AZD7648] (first compound max 1 µM, 7x7, partner max 10 µM) | 0.106 | 0.165 | 0.0309 | -0.0006 | 0.0851 | 0.0499 | -0.0544 | 0.0412 | 0.0316 | 0.0411 | 0.0574 | 0.0251 | -0.0086 | 0.0858 | 0.0417 | 0.0033 | 0.0255 | -0.0119 | 0.0799 | 0.0022 |
| CN(CCO)CC[C@H](CSc1ccccc1)Nc1ccc(S(=O)(=O)NC(=O)c2ccc(N3CCC([C@@H](O)c4ccccc4-c4ccc(Cl)cc4)CC3)cc2)cc1S(=O)(=O)C(F)(F)F [AZD4320] + Cn1cnc2c(F)c(Nc3ccc(Br)cc3Cl)c(C(=O)NOCCO)cc21 [Selumetinib] (first compound max 1 µM, 7x7, partner max 3 µM) | 0.0228 | -0.0201 | -0.0573 | -0.0028 | 0.129 | 0.0605 | 0.0297 | -0.0492 | 0.0393 | 0.0525 | -0.0277 | 0.0636 | 0.0306 | -0.0298 | 0.0009 | 0.0159 | 0.0835 | -0.0178 | 0 | 0.0225 |
| CC1(C)CCC(CN2CCN(c3ccc(C(=O)NS(=O)(=O)c4ccc(NCC5CCOCC5)c([N+](=O)[O-])c4)c(Oc4cnc5[nH]ccc5c4)c3)CC2)=C(c2ccc(Cl)cc2)C1 [Venetoclax] + C=CCn1c(=O)c2cnc(Nc3ccc(N4CCN(C)CC4)cc3)nc2n1-c1cccc(C(C)(C)O)n1 [AZD1775] (first compound max 1 µM, partner max 1 µM) | -0.0835 | 0.0589 | -0.0159 | -0.0074 | -0.0683 | -0.026 | -0.0226 | -0.0347 | -0.0443 | 0.0593 | -0.047 | 0.0572 | -0.0907 | -0.0004 | -0.0599 | -0.0559 | 0.0331 | -0.0391 | -0.0113 | -0.0079 |
| COc1cccc(OCCCN)c1-c1cc(Nc2cnc(C#N)cn2)n[nH]1 [Prexasertib] + CN(C)CCCOc1ccc(-c2ccc3ncc4c(c3c2)n(C2CCOCC2)c(=O)n4C)cn1 [AZD0156] (first compound max 1 µM, 7x7, partner max 1 µM) | -0.0156 | -0.0115 | -0.0442 | -0.0668 | 0.0208 | -0.0262 | -0.007 | 0.0101 | -0.0273 | 0.0113 | 0.0236 | -0.0425 | -0.0211 | 0.0252 | -0.0374 | -0.0605 | 0.0014 | -0.0163 | 0.015 | -0.0279 |
| CC1(C)CCC(CN2CCN(c3ccc(C(=O)NS(=O)(=O)c4ccc(NCC5CCOCC5)c([N+](=O)[O-])c4)c(Oc4cnc5[nH]ccc5c4)c3)CC2)=C(c2ccc(Cl)cc2)C1 [Venetoclax] + CN(C)CCCOc1ccc(-c2ccc3ncc4c(c3c2)n(C2CCOCC2)c(=O)n4C)cn1 [AZD0156] (first compound max 1 µM, 7x7, partner max 1 µM) | 0.0113 | -0.0006 | -0.0201 | -0.0113 | -0.0076 | 0.0097 | -0.0151 | -0.0426 | -0.0099 | 0.0158 | -0.0431 | -0.0039 | -0.0218 | -0.061 | -0.0503 | -0.0099 | 0.0156 | 0.0003 | 0.0418 | -0.02 |
| CCc1c2c(nc3ccc(O)cc13)-c1cc3c(c(=O)n1C2)COC(=O)[C@]3(O)CC [SN-38] + O=C(c1cc(Cc2n[nH]c(=O)c3ccccc23)ccc1F)N1CCN(C(=O)C2CC2)CC1 [Olaparib] (first compound max 0.3 µM, 7x7, partner max 10 µM) | 0.0148 | 0.0981 | 0.0221 | 0.0909 | 0.119 | 0.0498 | -0.0464 | 0.0807 | 0.0913 | 0.0404 | 0.0647 | -0.0232 |  | 0.0617 |  | 0.064 |  | 0.0741 | -0.0154 |  |
| NC1(C(=O)N[C@@H](CCO)c2ccc(Cl)cc2)CCN(c2ncnc3[nH]ccc23)CC1 [Capivasertib] + C[C@@H]1COCCN1C2=NC(=NC(=C2)C3(CC3)[S@](=N)(=O)C)C4=C5C=CNC5=NC=C4 [AZD6738] (first compound max 10 µM, 7x7, partner max 10 µM) | -0.0465 | 0.0222 | -0.0194 | -0.0381 | -0.0462 | -0.0333 | -0.0153 | -0.0739 | -0.0333 | 0.0028 | -0.0824 | -0.0376 | -0.0371 | -0.0161 | 0.0099 | -0.159 | -0.11 | -0.0508 | -0.0364 | -0.0468 |
| CN(CCO)CC[C@H](CSc1ccccc1)Nc1ccc(S(=O)(=O)NC(=O)c2ccc(N3CCC([C@@H](O)c4ccccc4-c4ccc(Cl)cc4)CC3)cc2)cc1S(=O)(=O)C(F)(F)F [AZD4320] + CN(C)CCCOc1ccc(-c2ccc3ncc4c(c3c2)n(C2CCOCC2)c(=O)n4C)cn1 [AZD0156] (first compound max 1 µM, 7x7, partner max 1 µM) | -0.0065 | 0.0183 | -0.0727 | -0.0153 | 0.0118 | 0.0142 | -0.03 | -0.0178 | -0.0268 | 0.077 | -0.0481 | -0.0367 | -0.051 | -0.0403 | -0.089 | -0.0209 | -0.0589 | -0.0346 | -0.0056 | -0.0206 |
| CC(=O)c1c(C)c2cnc(Nc3ccc(N4CCNCC4)cn3)nc2n(C2CCCC2)c1=O [Palbociclib] + CN(CC[C@H](CSC1=CC=CC=C1)NC2=C(C=C(C=C2)S(=O)(=O)NC(=O)C3=CC=C(C=C3)N4CCC(CC4)[C@H](C5=CC=CC=C5C6=CC=C(C=C6)Cl)O)S(=O)(=O)C(F)(F)F)CCO [AZD4320] (first compound max 10 µM, 7x7, partner max 1 µM) | -0.0241 |  |  |  | 0.0118 | -0.0398 |  |  | -0.0026 |  | -0.0305 |  | -0.0557 |  | -0.0902 |  | -0.0078 | -0.0227 |  | -0.0591 |
| COc1nnc2ccc(N3CCC(c4ccc(OCCN5CCN(C)C(=O)[C@H]5C)cc4)CC3)nn12 [AZD5153] + CN(CC[C@H](CSC1=CC=CC=C1)NC2=C(C=C(C=C2)S(=O)(=O)NC(=O)C3=CC=C(C=C3)N4CCC(CC4)[C@H](C5=CC=CC=C5C6=CC=C(C=C6)Cl)O)S(=O)(=O)C(F)(F)F)CCO [AZD4320] (first compound max 1 µM, 7x7, partner max 1 µM) | 0.0375 |  |  |  | 0.113 | 0.0257 |  |  | 0.0267 |  | -0.0004 |  | 0.023 |  | 0.0557 |  | 0.0967 | 0.0104 |  | -0.0203 |
| C[C@@H](c1ccc2nccn2c1)n1nnc2ncc(-c3cnn(C)c3)nc21 [Savolitinib] + CN(CC[C@H](CSC1=CC=CC=C1)NC2=C(C=C(C=C2)S(=O)(=O)NC(=O)C3=CC=C(C=C3)N4CCC(CC4)[C@H](C5=CC=CC=C5C6=CC=C(C=C6)Cl)O)S(=O)(=O)C(F)(F)F)CCO [AZD4320] (first compound max 1 µM, 7x7, partner max 1 µM) | 0.0041 |  |  |  | -0.0547 | -0.0031 |  |  | -0.0544 |  | -0.0755 |  | -0.0298 |  | -0.0205 |  | -0.0425 | -0.0181 |  | -0.0691 |
